Data as given in patent US20130108713A1 (RYAOMA, INC., priority 2008, published 2013).

Columns and labels:
[1] = tested on: metastatic melanoma-affected patients
Method: The melanoma-affected patients are treated as follows. […] The treatment course spans 15 to 20 intravenous infusions. When a positive dynamic is achieved, the treatment course is followed until the pronounced effect is produced.
Along with an estimated rate of objected responses of therapeutical measures, a comparison was made between such indexes as the quality of life, endurability of therapeutic treatment, and total survivability. The study included the patients of the age period between 18-75 with histologically confirmed diagnoses of skin related melanomas. None of the patients had yet gone through chemotherapy. […] The treatment process continued to the point where the disease started progressing or side-effects developed that required the therapeutic measures to be terminated.
Dacarbazine in a dose of 2500 mg/mL was prescribed in a form of infusion that lasted sixty minutes (60 min.), once a day during successive five days, every four weeks on the 1-5 and 29-33rd days respectively. Repeated courses were carried out only in the patients whose progressing disease was not recorded.

albumin = test: Albumin coagulation, optic density on photoelectric calorimeter; format: biochemical; settings: for coagulation of the protein (in words): albumin solution
Method: In the coagulation studies, albumin was used for the protein.
In the table, the calculated concentrations of the substances being investigated are listed.
One (1) ml of the tannin solution was put into the test-tube. One (1) ml of the albumin solution was added. 5 ml of water were added. The mixture was shaken. An optic density of the solution was determined on KΦK-2(photoelectric calorimeter) when Δ=260 nm, in cuvette=1 cm in 5, 10, 15, 20, 25 min.
Each weight was repeated three times and the optical density measured.
In addition, the control experiment was conducted with 1 ml of the albumin solution, 0.001 g of potassium iodide, 5 ml of water.

[2] = reaction with PSA; cited from earlier work
[3] = treated patients, hematological side-effect

| SMILES | frequency of objective responses ([1]; melanoma patients, responses recorded in skin-based metastatic melanomas) [%] | neuropenia recorded [1, 3] | trombocytopenia recorded [1, 3] | optic density (albumin; 0.001 g of potassium iodide added to the tannin/albumin solution) | coagulation of the protein (in words) (albumin) | optic density (albumin; another 0.001 g of potassium iodide added to the tannin/albumin solution) | turbidity in the solution (albumin; control: 1 ml albumin solution, 0.001 g potassium iodide, 5 ml water, one hour later) | optic density d5 (albumin; 1 ml tannin solution + 1 ml albumin solution + 5 ml water, 260 nm, 1 cm cuvette, 5 min) | optic density d10 (albumin; same mixture, 10 min) | optic density d20 (albumin; same mixture, 20 min) | optic density d25 (albumin; same mixture, 25 min) | period of precipitation for the reaction (albumin; tannin + albumin) [min] | moles of N-acetylneuraminic acid sedimented by each mole of tannic acid [2] |
| --- | --- | --- | --- | --- | --- | --- | --- | --- | --- | --- | --- | --- | --- |
| CN(C)/N=N/c1[nH]cnc1C(N)=O [dacarbazine] | 23 | 14 % of observations | 57 % of the patients | – | – | – | – | – | – | – | – | – | – |
| [I-].[K+] [potassium iodide] | – | – | – | 0.87 | did not possess coagulating capacity | 0.92 | no turbidity | – | – | – | – | – | – |
| O=C(OC[C@H]1O[C@@H](OC(=O)c2cc(O)c(O)c(OC(=O)c3cc(O)c(O)c(O)c3)c2)[C@H](OC(=O)c2cc(O)c(O)c(OC(=O)c3cc(O)c(O)c(O)c3)c2)[C@@H](OC(=O)c2cc(O)c(O)c(OC(=O)c3cc(O)c(O)c(O)c3)c2)[C@@H]1OC(=O)c1cc(O)c(O)c(OC(=O)c2cc(O)c(O)c(O)c2)c1)c1cc(O)c(O)c(OC(=O)c2cc(O)c(O)c(O)c2)c1 [tannin, tannic acid] | – | – | – | – | No coagulation | – | – | 0.11 | 0.16 | 0.19 | 0.19 | 20 | three |
